The source of these data is ChEMBL document CHEMBL1221326, “Synthesis, biological evaluation, and docking studies of novel heterocyclic diaryl compounds as selective COX-2 inhibitors” (Bioorg Med Chem, 2010).

The species entered for one assay is Ovis aries. In words: Selectivity index, ratio of IC50 for sheep COX1 to IC50 for sheep COX2.
Assay [1] has as its target T1, Prostaglandin G/H synthase 1 (Ovis aries) (UniProt P05979).
T1 sequence (whole entry): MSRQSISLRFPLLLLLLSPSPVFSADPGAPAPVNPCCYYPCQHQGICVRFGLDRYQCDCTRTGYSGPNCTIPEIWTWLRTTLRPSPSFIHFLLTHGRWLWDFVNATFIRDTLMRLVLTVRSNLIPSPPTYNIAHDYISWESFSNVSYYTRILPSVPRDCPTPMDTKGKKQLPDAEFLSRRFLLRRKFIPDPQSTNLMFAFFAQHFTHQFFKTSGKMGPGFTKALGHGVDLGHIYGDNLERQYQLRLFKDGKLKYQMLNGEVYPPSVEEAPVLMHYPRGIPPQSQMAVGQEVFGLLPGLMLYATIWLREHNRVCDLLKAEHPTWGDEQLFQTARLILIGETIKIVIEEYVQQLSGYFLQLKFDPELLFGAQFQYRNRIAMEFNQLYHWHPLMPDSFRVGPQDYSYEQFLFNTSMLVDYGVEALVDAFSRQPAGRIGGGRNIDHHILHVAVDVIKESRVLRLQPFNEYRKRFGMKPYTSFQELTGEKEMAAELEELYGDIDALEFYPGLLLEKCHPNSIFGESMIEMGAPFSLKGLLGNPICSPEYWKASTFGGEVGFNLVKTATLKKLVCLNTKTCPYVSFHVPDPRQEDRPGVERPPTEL
The assay is described as follows: Inhibition of sheep COX1 at 10 uM by enzyme immunoassay.

Assay [2] addresses T2, Prostaglandin G/H synthase 1 (Ovis aries, UniProt P05979).
T2 sequence (P05979 whole entry): T1 sequence (whole entry)
The assay is described as follows: Inhibition of sheep COX1 by enzyme immunoassay.

Consider `Cn1c(=O)oc2cc(-c3cc(C(F)(F)F)nn3-c3ccc(F)cc3)ccc21`, for which the Ratio IC50 in the assay listed under Ovis aries was determined as 6. Further, the inhibition in assay [1] was 55.5%. Also, the midpoint of inhibition in assay [2], the IC50, lay at 6000 nM.

`COc1ccc(-n2nc(C(F)(F)F)cc2-c2ccc3c(c2)oc(=O)n3C)cc1` registered an inhibition in assay [1] of 95.6%. For the same molecule, the IC50 in assay [2] came to 4 nM.

In assay [1], `COc1ccc(C2=C(c3ccc4c(c3)oc(=O)n4C)COC2=O)cc1` returned an inhibition of 59.8%. In assay [2], the 50% inhibitory concentration (IC50) turned out to be 61 nM.

Regarding `Cn1c(=O)oc2cc(-c3cc(C(F)(F)F)nn3-c3ccc(Cl)cc3)ccc21`, the inhibition in assay [1] came to 91.2%. For the same molecule, the 50% inhibitory concentration (IC50) in assay [2] turned out to be 1000 nM.
